The record followed here is patent publication US5270047A, “Local delivery of dipyridamole for the treatment of proliferative diseases” (priority 1991, dated 1993).

For the experiment, the system named is balloon-injured rat carotid arteries. Briefly: Effect of systemic (dietary) dipyridamole upon intimal thickening after balloon injury of the left common carotid artery. The class given is in vivo, male Sprague-Dawley rats. To be noted: two weeks; for Area of Intimal Thickening: control 0.120 ± 0.014. Here is the method: Balloon injury to the left common carotid arteries of male Sprague-Dawley rats (350-400 g) was accomplished by three passes of an inflated 2F Fogarty balloon catheter (Baxter Healthcare, McGaw Park, Ill.) as described by Clowes et al., Lab Invest. 49:208-215 (1983). Animals were anesthetized with Ketamine (80 mg/kg, intramuscular, Aveco, Ft. Dodge, Iowa) and Rompun (16 mg/kg, intramuscular, Mobay Corp., Shawnee, Kans.). Entry of the balloon catheter to the left common carotid artery was made via a nick in the external carotid artery, which was tied off at the end of the surgical procedure. Dipyridamole was systemically administered for two weeks (0.03 and 0.10% wt/wt, as an admixture in the diet, equivalent to approximately 30 and 100 mg/kg/day, respectively).

Setting [1] is: 0.03% in diet wt/wt (approximately 30 mg/kg/day).
The mark [2] stands for this setting: 0.10% in diet wt/wt (approximately 100 mg/kg/day).

Turning to `OCCN(CCO)c1nc(N2CCCCC2)c2nc(N(CCO)CCO)nc(N3CCCCC3)c2n1` [Dipyridamole, 2,6-bis(diethanolamino)-4,8-dipiperidinopyrimido[5,4-d]pyrimidine], under setting [1], the “Area of Intimal Thickening (% of control)” value was 97.6 % of control and the “Area of Intimal Thickening” value came to 0.116 ± 0.017 mm^2. Moreover, for the setting “0.03 and 0.10% wt/wt in the diet”, the “effect upon intimal thickening in the balloon-injured rat carotid arteries” value was “No significant effect upon intimal thickening”. Besides, under setting [2], the “Area of Intimal Thickening (% of control)” value was 90.8 % of control and the “Area of Intimal Thickening” value is on record as 0.109 ± 0.014 mm^2.
